The values below come from paper PMC8160911, “Anti-Melanogenic Properties of Velutin and Its Analogs” (Molecules, 2021).

Data set [1] can be described thus: ABTS free radical scavenging activity. The note with it: for EC50: 10 min in the dark at RT. How it is done: In order to evaluate the antioxidant activity of the velutin derivatives, the ABTS radical scavenging activity was determined, as previously described. To generate the ABTS radical, 10 mL of 7 mM ABTS was mixed with 176 μL of 140 mM potassium peroxydisulfate in dH2O, and incubated in the dark at room temperature (RT) for 16 h, prior to use. The ABTS radical solution was diluted with absolute methanol, to obtain an absorbance of near 0.7 at 734 nm. Aliquots of 100 μL of each derivative in the indicated concentration range 2 to 200 μM were added to 100 μL of the diluted ABTS radical solution, and incubated for 10 min in the dark at RT. The absorbance was then measured at 732 nm using a SpectraMax M5 Multi-Mode microplate reader (Molecular Devices, Sunnyvale, CA, USA). The ABTS radical scavenging activity was calculated as follows:ABTS radical scavenging activity (%) = 1 − (Asample/Acontrol) × 100(1)

Data set [2] concerns the target T1, mushroom tyrosinase (Agaricus bisporus, UniProt C7FF04).
T1 construct: purchased Sigma-Aldrich
Description: In vitro mushroom tyrosinase inhibition (dopachrome formation from L-tyrosine). The format is biochemical. The procedure: The inhibitory effect of velutin derivatives on tyrosinase activity was assessed by the amount of dopachrome synthesized from the catalytic reaction of tyrosinase. […] Then, 100 μL of 0.4 mM L-tyrosine was added to each well, followed by incubation for an additional 10 min at 37 °C.

Data set [3] concerns B16F10 melanoma cells. The data set can be described thus: Melanin content in α-MSH-stimulated melanoma cells. The format is cell-based, murine. The note with it: 48 h; for effect on α-MSH-stimulated melanogenesis: 10 μM; for inhibition at 10 µM: Mus musculus, B16-F10, 10 μM, read-out: inhibition of α-MSH-stimulated melanogenesis. The procedure:
(§1) B16F10 murine melanoma cells were cultured in DMEM medium (Gibco, Gaithersburg, USA) supplemented with 10% heat-inactivated fetal bovine serum (Gibco), 100 units/mL penicillin, and 100 μg/mL streptomycin (Gibco), at 37 °C under humidified 5% CO2.
The melanin content was determined as previously described, with some modifications. The melanoma cells were cultured in a 6-well plate for 24 h. They were treated with the indicated concentrations of velutin derivatives for a further 48 h, in the presence of 100 nM α–MSH. After washing twice with chilled Dulbecco’s phosphate buffered saline supplemented with calcium chloride and magnesium chloride (D-PBS, Gibco), the resulting cells were detached by incubation with trypsin–EDTA solution. After centrifugation at 1000 rpm for 3 min, the cell pellet was dissolved in 150 μL of 1 M NaOH containing 10% DMSO for 1 h at 60 °C. The melanin content was determined by the absorbance at 405 nm, using the microplate reader.
(§2) Figure 3 Effect of velutin derivatives on intracellular melanin synthesis in B16F10 melanoma cells. B16F10 cells were treated with 0.1% DMSO as vehicle, or with 10 μM of each derivative, for 48 h. (A) Melanin content in the B16F10 cells was determined using a photometric method, as described in the Experimental Section. (B) Cellular tyrosinase activity was determined by measuring dopachrome generated by the enzymatic reaction of cell lysates with L-DOPA. Data are expressed as the mean ± SD of three independent experiments (** p < 0.005, *** p < 0.001 as compared to α-MSH-stimulated B16F10 cells).

Data set [4] has as its system intracellular tyrosinase in B16F10 cells. The data set can be described thus: Cellular tyrosinase activity in α-MSH-stimulated melanoma cells (L-DOPA to dopachrome in lysates). The format is cell-based, murine. The note with it: 48 h; for reversal of α-MSH-mediated tyrosinase activation / effect on α-MSH-mediated intracellular tyrosinase activation: 10 μM, 100 nM α-MSH. The procedure:
as §1
Tyrosinase activity in B16 cells was examined on the basis of the amount of dopachrome produced from the catalytic reaction of intracellular tyrosinase. In brief, the melanoma cells were cultured in a 6-well plate for 24 h, followed by treatment with different concentrations of velutin derivatives for a further 48 h, in the presence of 100 nM of α–MSH. After washing twice with ice-cold D-PBS, the cells were lysed in 200 μL of radio-immunoprecipitation assay (RIPA) buffer (Sigma-Aldrich), containing protease and phosphatase inhibitors. After centrifugation of the cell lysate collected from each well at 15,000× g for 15 min, 100 μL of supernatant was mixed with 100 μL of 1 mM L-DOPA in PBS (pH 6.8), followed by incubation for 30 min at 37 °C. The absorbance of dopachrome was measured at 475 nm using the microplate reader. Data were normalized with protein concentration, determined by bicinchoninic acid assay.
as §2

Data set [5] relates to B16F10 murine melanoma cells. Description: Cell viability / cytotoxicity by MTT assay. The format is cell-based. The following applies: for death rate: 20 μM. How it is done:
as §1
The viability of B16F10 cells was determined using an MTT assay, as previously described. In brief, B16F10 cells were seeded in 24-well plates at a density of 1 × 10^4 cells per well. After 24 h, the cells were treated with the indicated concentrations of velutin derivatives for 48 h. The cells were then incubated with MTT solution for 4 h, and the reduced formazan crystals were dissolved in DMSO. The resulting solution was transferred to 96-well plates, and the absorbance was measured at 540 nm, using a SpectraMax M5 Multi-Mode microplate reader.
Figure 2 Cytotoxicity of velutin derivatives in the B16F10 melanoma cells. B16F10 cells were treated with 0.1% DMSO as vehicle, or with 20 μM of each derivative, for 24 h. Cell viability was determined by the MTT assay, as described in the Experimental Section. Data are expressed as the mean ± SD of three independent experiments (** p < 0.005, *** p < 0.001 compared to the control cells).
For orientation: Tetrazolium assays rely on reduction of a dye to a coloured formazan, in cell work by metabolically active cells.

The mark [6] stands for this setting: 50 U/mL mushroom tyrosinase, L-tyrosine substrate, read-out: IC50 in Mushroom Tyrosinase Activity.

Entries after “also recorded” stand apart in the source; their conditions may differ. Read-outs that look alike come from different tables or passages of the source.

T1 sequence (C7FF04 1-392 limits assumed): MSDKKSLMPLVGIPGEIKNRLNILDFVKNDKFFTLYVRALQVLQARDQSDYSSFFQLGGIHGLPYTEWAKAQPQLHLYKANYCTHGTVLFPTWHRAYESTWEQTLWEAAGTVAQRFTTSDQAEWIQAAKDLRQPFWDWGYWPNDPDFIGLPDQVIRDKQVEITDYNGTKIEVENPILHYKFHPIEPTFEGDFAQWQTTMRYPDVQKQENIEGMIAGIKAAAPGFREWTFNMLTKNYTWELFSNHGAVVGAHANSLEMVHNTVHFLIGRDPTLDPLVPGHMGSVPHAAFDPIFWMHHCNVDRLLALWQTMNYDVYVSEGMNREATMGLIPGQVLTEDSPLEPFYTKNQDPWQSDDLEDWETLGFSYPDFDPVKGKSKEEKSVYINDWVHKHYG

The EC50 is the concentration that produces a half-maximal response. High values mean lower potency in that assay, low ones higher potency in that assay. `OC[C@H]1O[C@@H](Oc2ccc(O)cc2)[C@H](O)[C@@H](O)[C@@H]1O` [Arbutin, arbutin, reference compound] yielded a concentration giving a half-maximal response (EC50) in data set [1] of 12.7 µM.

The IC50 is the point on the concentration scale where inhibition reaches its midpoint. In data set [1], `COc1cc(O)c2c(=O)cc(-c3ccc(O)c(OC)c3)oc2c1` [Compound V1, Velutin] showed an EC50 of 23.1 µM. In addition, in data set [2] (setting [6]), the IC50 was 910 µM. Further, the “effect on α-MSH-stimulated melanogenesis” value in data set [3] (100 nM α-MSH) was “completely inhibited”. The “reversal of α-MSH-mediated tyrosinase activation” value (from here on “reversal”) in data set [4] came out at 87%.

`COc1ccc2c(=O)cc(-c3ccc(O)c(OC)c3)oc2c1` [Compound V2, 2-(4-Hydroxy-3-methoxyphenyl)-7-methoxy-4H-chromen-4-one] registered a concentration for a half-maximal effect (EC50) in data set [1] of 21.9 µM. Moreover, in data set [3] (100 nM α-MSH), the “effect on α-MSH-stimulated melanogenesis” value is recorded as “completely inhibited”. The “effect on α-MSH-mediated intracellular tyrosinase activation” value in data set [4] is “did not”.

The term inhibition denotes the relative decrease from the control value, in per cent. In turn, `COc1cc(-c2cc(=O)c3c(O)cccc3o2)ccc1O` [Compound V3, 5-Hydroxy-2-(4-hydroxy-3-methoxyphenyl)-4H-chromen-4-one] gave an EC50 in data set [1] of 23.3 µM. For the same molecule, the inhibition at 10 µM in data set [3] (100 nM α-MSH) is 50.7%. Also, in data set [4], the “reversal” value stood at 97%.

In data set [1], `COc1cc(O)c2c(=O)cc(-c3ccc(O)cc3)oc2c1` [Compound V4, Genkwanin] showed a concentration for a half-maximal effect (EC50) of 55.7 µM. In data set [2], this molecule came in with an IC50 of 204 µM. Further, in data set [3] (100 nM α-MSH), the inhibition at 10 µM is 69.1%. The “reversal” value in data set [4] is given as 100%.

In data set [1], `COc1cccc(-c2cc(=O)c3c(O)cc(OC)cc3o2)c1` [Compound V5, 5-Hydroxy-7-methoxy-2-(3-methoxyphenyl)-4H-chromen-4-one] yielded a concentration giving a half-maximal response (EC50) of 96.6 µM. Also, the inhibition at 10 µM in data set [3] (100 nM α-MSH) amounted to 39.3%. In addition, in data set [4], the “reversal” value is 80%.

The molecule `COc1cc(OC)c2c(=O)cc(-c3ccc(O)c(OC)c3)oc2c1` [Compound V6, 2-(4-Hydroxy-3-methoxyphenyl)-5,7-dimethoxy-4H-chromen-4-one] returned an EC50 in data set [1] of 23.7 µM. Besides, the “increase of melanin synthesis” value in data set [3] (10 μM derivative, 100 nM α-MSH) came out at 3.0 fold.

Regarding `COc1cc(-c2cc(=O)c3c(O)cc(O)cc3o2)ccc1O` [Compound V7, Chrysoeriol], the concentration giving a half-maximal response (EC50) in data set [1] amounted to 22.1 µM. Besides, the “effect on α-MSH-stimulated melanogenesis” value in data set [3] (100 nM α-MSH) is reported as “not significantly changed; also recorded: no effect”. Further, in data set [4], the “effect on α-MSH-mediated intracellular tyrosinase activation” value was “did not; also recorded: no effect”.

The molecule `COc1cc(O)c2c(=O)cc(-c3ccc(O)c(O)c3)oc2c1` [Compound V8, 2-(3,4-Dihydroxyphenyl)-5-hydroxy-7-methoxy-4H-chromen-4-one] showed an EC50 in data set [1] of 5.47 µM. Besides, in data set [2] (setting [6]), the IC50 is 202 µM. This molecule also had a death rate in data set [5] of 71.8%.

Regarding `COc1cc(O)c2c(=O)cc(-c3ccc(OC)c(OC)c3)oc2c1` [Compound V9, 2-(3,4-Dimethoxyphenyl)-5-hydroxy-7-methoxy-4H-chromen-4-one], in data set [1], the midpoint of the response, the EC50, lay at 100 µM. Also, the IC50 in data set [2] (setting [6]) was 715 µM. Moreover, the “effect on α-MSH-stimulated melanogenesis” value in data set [3] (100 nM α-MSH) is recorded as “not significantly changed”. For the same molecule, in data set [4], the “effect on α-MSH-mediated intracellular tyrosinase activation” value was “did not”.

On to `COc1cc(OC)c2c(=O)cc(-c3ccc(OC)c(OC)c3)oc2c1` [Compound V10, 2-(3,4-Dimethoxyphenyl)-5,7-dimethoxy-4H-chromen-4-one], for which the “effect on radical scavenging activity” value in data set [1] is “no significant effect”. Also, the death rate in data set [5] came to 24.0%. In addition, the “effect on α-MSH-stimulated melanogenesis” value in data set [3] (100 nM α-MSH) is reported as “not significantly changed”. Moreover, the “effect on α-MSH-mediated intracellular tyrosinase activation” value in data set [4] is on record as “did not”.

Take `O=c1cc(-c2ccc(O)c(O)c2)oc2cc(O)cc(O)c12` [Compound V11, luteolin]: it took 6.13 µM to reach a half-maximal effect in data set [1] (EC50). For the same molecule, in data set [2] (setting [6]), the IC50 was found to be 36.7 µM. Besides, the death rate in data set [5] stood at 69.7%. The “effect on cell viability / cytotoxicity” value in data set [5] (concentrations up to 20 μM) is “cytotoxicity”.

Regarding `O=c1cc(-c2ccccc2)oc2ccccc12` [Compound V12, 2-Phenylchromen-4-one], the “effect on radical scavenging activity” value in data set [1] is reported as “no significant effect”.

Turning to “α-melanocyte stimulating hormone [α–MSH, reference compound]”, the “increase of melanin content by α-MSH” value in data set [3] (100 nM α-MSH alone) worked out at 1.9 fold. Moreover, in data set [4] (100 nM α-MSH alone), the “activation of tyrosinase by α-MSH” value is given as “approximately 1.7 fold”.
